The values that follow come from patent US20220125877A1, “METHOD FOR TREATING COLORECTAL CANCER” (SUN YAT-SEN UNIVERSITY, priority 2019, published 2022).

The test system of one experiment is KRAS mutation PDX tumor. As to the kind of experiment: PDX model, tumor size and weight. To be noted: compared with KRAS wildtype tumor model; 200 mg/kg in water, 30 d, FIG. 7. Type of experiment: in vivo, BALB/c nude mice. The protocol:
Use of the PDX model: tumor tissues from the clinical KRAS wildtype and mutation CRC patients were taken, the tumor cells were cultured with a digestion process; after identifying the KRAS mutation, the tumor cells were planted in an axillary fossa area of nude mice.
1) Collection of patients' tumor specimens: cancer tissues with non-necrotic edges were taken from specimens obtained after excision, and soaked into a PRMI1640 culture solution containing 5% fetal calf serum, 1×penicillin and streptomycin double-antibodies, and then transported at 4° C.;
2) the tumor tissues were cut into small pieces having a size of about 2×2×2 mm on a super clean bench, and cleaned for 3 times with the above culture solution to remove extravasated blood; […]
7) when the transplanted tumor grew to 100-200 mm^3, the nude mice were administered intragastrically everyday at 9:00 a.m. for consecutive 28 d. […] The size of the transplanted tumor was measured everyday, volume (mm^3)=[length×width^2]/2;
8) the nude mice were killed 30 d layer, and tumor tissues were taken, shoot, measured, embedded and sliced.
200 mg/kg (equivalent to human 1000 mg) metformin was dissolved into water, and respectively taken by KRAS wildtype and mutation animals; then the tumor size was measured; 30 d later, the tumor tissues were killed and weighed.

Experiment [1] deals with LoVo cell line with knock-down KRAS protein. Briefly: Cell cycle in KRAS knock-down cells. Type of experiment: cell-based, human. The following applies: relative to LoVo, FIG. 8D. The protocol: 1) KRAS interference lentivirus (sh-KRAS) was constructed and packaged by Shanghai Genechem Co., LTD.
2) LoVo cells were subcultured to a 6-well plate (about 1×10^5/well), when cells were subjected to adherence growth, and the degree of cell fusion was not greater than 50%, fresh culture solution was replaced ahead of 2 h, and 10 μg/mL lentivirus infection enhancer polybrene was added. Multiplicity of Infection (MOI) of LoVo was about 20; lentivirus was added according to the formula: adding amount of lentivirus per well (μl)=MOI×cell population/titer (TU/ml)×1000. The culture solution was replaced after 16-18 h, and 1 μM puromycin was conventionally added for screening the cell line whose RNA stable expression was interfered by KRAS.
1) The cells were inoculated onto a 6-well plate, and subjected to adherence growth for 12 h, then starvation treatment over the night, and treated with the addition of an agent for 24 h, then the cells were digested and washed for 3 times with PBS and centrifuged to discard supernatant; −20° C. pre-cooled 70% ethanol was added dropwise, and the cells were mixed well by vortex, and immobilized over the night at −20° C.
2) The cells were horizontally centrifuged for 10 min at 2000 rpm to discard the supernatant; then the cells were washed with PBS for 2-3 times to remove the residual ethanol with centrifugation for 5 min each time. […]

Experiment [2] concerns KRAS mutation CRC cells LoVo. As to the kind of experiment: Plate clone formation. Type of experiment: cell-based, human. The following applies: FIGS. 8A-B. The protocol:
(§1) 1) Cell inoculation: the culture solution was absorbed and discarded to collect the cells, then the cells were suspended in a treatment condition culture solution, and counted for 3 times to obtain a mean value, then the concentration of a cell suspension was adjusted to 1×10^3/ml. 2.5 ml treatment condition culture solution was respectively added to per well of a 6-well culture plate; 0.5 ml cell suspension (namely, 500 cells per well) was added per well with a final volume of 3 ml. Note that the culture plate was shaken repeatedly according to a cross-shaped direction during inoculation, such that the cells were distributed evenly as much as possible.
(§2) 3) Clone staining: the culture was stopped when the cells formed visible clones (the number of cloned cells per well was about 50-150) by the naked eyes. The culture medium was discarded, and the clones were soaked and washed for twice with PBS carefully, 1.5 ml 4% paraformaldehyde was respectively added per well for immobilization for 15 min; then the immobilization solution was discarded, and the clones were cleaned with running water slowly; 1.5 ml crystal violet working solution was added per well, standing at room temperature, and the clones were stained for 30 min, and the staining solution was cleaned with running water slowly, then the remaining clones were dried in a draught cupboard. […]

Experiment [3] relates to KRAS wildtype CRC cells SW48. Briefly: Plate clone formation. The following applies: FIGS. 8A-B. Type of experiment: cell-based, human. The protocol:
as §1, §2

The test system of experiment [4] is KRAS wildtype colorectal cancer cells. Briefly: Cell viability, metformin with a gradient concentration. Type of experiment: cell-based, human. To be noted: FIG. 6. The protocol: The cells were inoculated on a plate according to the concentration of 5000 cells/well (48-well plate, 200 μl per well). The cells were treated with different ways according to the experimental requirements, and 10 μl CCK8 solution was added after a period of time. The cells were incubated for 1 h in an incubator; 200 μl supernatant were absorbed into a 96-well ELISA plate to determine OD450 with a microplate reader.
(2) Metformin with a gradient concentration was used in vitro to treat KRAS wildtype colorectal cancer cell lines SW48 and CaCO2, KRAS G13D-mutation colorectal cancer cell lines HCT-116 and LoVo, as well as KRAS G12V-mutation colorectal cancer cell lines SW480 and SW620. In addition, the metformin with a gradient concentration was used to treat the KRAS wildtype colorectal cancer cell line SW48 transfected with KRAS G12V, KRAS G13D and KRAS G12D plasmids.

Molecules are shown by their SMILES.

For the compound `CN(C)C(=N)N=C(N)N` [metformin], in the experiment with KRAS mutation PDX tumor, the tumor size result is “obviously inhibit” and the tumor weight entry was “obviously inhibit”. Moreover, in experiment [1], the “inhibiting effect on transformation from G1 phase to phase S after interference of KRAS (G13D) expression” value is on record as “down-regulate the inhibiting effect”. In experiment [2], the clone formation result is “inhibits the clone formation”. Besides, the clone formation entry in experiment [3] is reported as “no obvious effect”. Also, in experiment [4], the “effect on cell viability” value is listed as “has no effect”.
